Assay [1] concerns Radical scavenging activity. Briefly: Antioxidant activity assessed as inhibition of DPPH radical […]. The assay is classed as functional. Background: The DPPH test is a chemical assay of radical scavenging.
Assay [2] has as its target T1, Seed linoleate 13S-lipoxygenase-1 (Glycine max, UniProt P08170).
T1 sequence (P08170 whole entry): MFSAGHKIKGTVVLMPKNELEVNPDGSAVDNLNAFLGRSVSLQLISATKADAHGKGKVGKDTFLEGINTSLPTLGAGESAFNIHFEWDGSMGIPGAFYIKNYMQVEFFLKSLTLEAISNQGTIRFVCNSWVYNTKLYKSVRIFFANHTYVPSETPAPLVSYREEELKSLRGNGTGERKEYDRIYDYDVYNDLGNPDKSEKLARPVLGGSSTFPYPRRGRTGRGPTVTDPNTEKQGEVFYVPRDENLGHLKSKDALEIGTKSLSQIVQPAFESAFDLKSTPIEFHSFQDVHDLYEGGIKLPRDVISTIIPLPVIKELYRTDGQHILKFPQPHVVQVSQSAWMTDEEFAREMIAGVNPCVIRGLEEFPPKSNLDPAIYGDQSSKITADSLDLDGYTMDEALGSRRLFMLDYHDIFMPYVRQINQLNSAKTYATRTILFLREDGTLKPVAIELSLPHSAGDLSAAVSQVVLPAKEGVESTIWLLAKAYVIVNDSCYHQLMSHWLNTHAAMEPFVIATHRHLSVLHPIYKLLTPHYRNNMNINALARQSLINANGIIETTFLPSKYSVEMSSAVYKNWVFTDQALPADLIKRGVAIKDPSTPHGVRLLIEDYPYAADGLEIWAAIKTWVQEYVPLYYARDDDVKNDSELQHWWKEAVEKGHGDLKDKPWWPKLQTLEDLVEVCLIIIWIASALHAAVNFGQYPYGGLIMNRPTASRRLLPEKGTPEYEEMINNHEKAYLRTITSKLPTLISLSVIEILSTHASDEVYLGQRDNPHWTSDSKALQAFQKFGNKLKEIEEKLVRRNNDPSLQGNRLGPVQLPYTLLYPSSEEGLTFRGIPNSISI
Briefly: Inhibition of Glycine max (soybean) 15-lipoxygenase activity assessed as decrease in peroxide formation using linoleic acid as substrate preincubated with enzyme for 5 min prior to substrate addition measured after 7 min by MBTH-DMAB method.

In assay [3] the target is T1, Seed linoleate 13S-lipoxygenase-1. Briefly: Inhibition of Glycine max (soybean) 15-lipoxygenase activity using linoleic acid as substrate by MBTH-DMAB method.

Take `CCCc1nc(N2CCCC2)nc2c1Nc1ccccc1S2`: the IC50 in assay [1] came out at 311 µM; in assay [3] it was 611 µM. Moreover, the Ki in assay [2] turned out to be 1.84 µM.

Regarding `CCCc1nc(N2CCCCC2)nc2c1Nc1ccccc1S2`, the IC50 was found to be 621 µM in assay [1] and 121 µM in assay [3]. In addition, the Ki in assay [2] is 0.662 µM.

Consider `CCCc1nc(N2CCC(C)CC2)nc2c1Nc1ccccc1S2`, for which the results for the IC50 in assay [1] and in assay [3] were 599 µM and 86.3 µM, respectively. Moreover, the Ki in assay [2] is 0.486 µM.

Turning to `CCCc1nc(N2CCOCC2)nc2c1Nc1ccccc1S2`, the IC50 in assay [1] was 669 µM; in assay [3], 726 µM. Besides, the Ki in assay [2] was 2.01 µM.

Consider `CCCc1nc(N2CCN(c3ccccc3)CC2)nc2c1Nc1ccccc1S2`, for which the IC50 was determined as 357 µM in assay [1] and 404 µM in assay [3]. Also, the inhibitory constant (Ki) in assay [2] amounted to 1.16 µM.

Regarding `CCCc1nc(N2CCN(C)CC2)nc2c1Nc1ccccc1S2`, the IC50 in assay [1] is 17.3 µM; in assay [3], 8.9 µM. For the same compound, in assay [2], the Ki turned out to be 0.192 µM.

As to `Cc1nc(N2CCN(C)CC2)nc2c1Nc1ccccc1S2`, the IC50 was determined as 69.6 µM in assay [1] and 19.5 µM in assay [3]. Besides, the Ki in assay [2] was determined as 0.198 µM.

For orientation: IC50 means the concentration at which inhibition is half-maximal. The Ki is a dissociation constant, usually derived from enzyme kinetics or from competition with a known ligand.
